Reference: US10738030B2, “Modulators of cystic fibrosis transmembrane conductance regulator” (Vertex Pharmaceuticals Incorporated, priority 2016, dated 2020)
pEC50: −log10 of the molar value.

Biological target: T1, F508del (Homo sapiens, UniProt P13569, DEL508-508)
T1 construct: expressed in transfected cells
Test: Membrane potential optical assay (FRET voltage-sensor dyes), identification of correction compounds
Assay type: cell-based
Details: NIH3T3 cells stably expressing F508del, procedures described above; for Emax: maximum efficacy, read-out: Max Efficacy; for pEC50: modulation of CFTR activity
In short: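 NIH3T3 mouse fibroblasts stably expressing F508del incubated 16 hrs at 37° C. in serum-free medium with or without compound. After dye loading (CC2-DMPE/DiSBAC2(3)), 10 μM forskolin plus 20 μM genistein added in Cl⁻-free medium; depolarization from Cl⁻ efflux read by FRET on VIPR II.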

T1 sequence (P13569 with tags, fused parts or gaps DEL508-508): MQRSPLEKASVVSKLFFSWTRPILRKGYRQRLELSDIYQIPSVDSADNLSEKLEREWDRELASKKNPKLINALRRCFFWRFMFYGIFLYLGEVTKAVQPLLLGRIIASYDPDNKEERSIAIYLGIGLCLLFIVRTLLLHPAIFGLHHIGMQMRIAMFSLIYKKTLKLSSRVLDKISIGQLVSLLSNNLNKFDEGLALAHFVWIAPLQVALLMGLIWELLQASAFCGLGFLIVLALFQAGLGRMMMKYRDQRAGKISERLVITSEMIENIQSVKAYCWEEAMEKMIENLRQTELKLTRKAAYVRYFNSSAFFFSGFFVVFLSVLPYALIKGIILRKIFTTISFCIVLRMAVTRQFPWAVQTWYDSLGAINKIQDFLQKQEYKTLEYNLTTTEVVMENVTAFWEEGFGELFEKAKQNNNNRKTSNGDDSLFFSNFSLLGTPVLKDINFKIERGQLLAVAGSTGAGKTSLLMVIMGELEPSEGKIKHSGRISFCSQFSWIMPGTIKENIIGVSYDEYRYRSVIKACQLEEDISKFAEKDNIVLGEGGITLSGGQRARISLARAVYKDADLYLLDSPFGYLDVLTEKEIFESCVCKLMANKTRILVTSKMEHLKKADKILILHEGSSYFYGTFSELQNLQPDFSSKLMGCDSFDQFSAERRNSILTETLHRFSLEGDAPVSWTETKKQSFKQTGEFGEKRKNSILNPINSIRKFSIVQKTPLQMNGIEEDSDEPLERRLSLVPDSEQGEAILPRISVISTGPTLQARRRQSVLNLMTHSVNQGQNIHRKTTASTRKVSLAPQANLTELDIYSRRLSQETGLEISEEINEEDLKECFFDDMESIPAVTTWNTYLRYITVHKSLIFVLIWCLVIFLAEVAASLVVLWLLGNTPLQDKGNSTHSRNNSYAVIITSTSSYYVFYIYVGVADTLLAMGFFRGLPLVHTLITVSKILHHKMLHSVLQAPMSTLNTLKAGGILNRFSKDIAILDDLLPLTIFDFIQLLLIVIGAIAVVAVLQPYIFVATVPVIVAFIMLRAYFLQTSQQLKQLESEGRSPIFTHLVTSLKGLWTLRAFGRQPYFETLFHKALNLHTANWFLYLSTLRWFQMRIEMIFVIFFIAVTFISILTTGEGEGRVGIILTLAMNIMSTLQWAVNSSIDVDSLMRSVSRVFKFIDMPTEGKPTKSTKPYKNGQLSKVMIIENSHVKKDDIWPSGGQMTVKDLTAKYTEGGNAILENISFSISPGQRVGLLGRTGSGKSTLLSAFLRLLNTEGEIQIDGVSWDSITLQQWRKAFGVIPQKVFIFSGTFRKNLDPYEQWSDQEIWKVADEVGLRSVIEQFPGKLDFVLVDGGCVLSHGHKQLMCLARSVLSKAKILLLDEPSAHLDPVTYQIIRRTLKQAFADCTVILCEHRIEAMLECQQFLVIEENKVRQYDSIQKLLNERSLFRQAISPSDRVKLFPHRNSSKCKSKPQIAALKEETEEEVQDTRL

CCN(C)c1nc(-c2cc(F)cc(OCC(C)C)c2)ccc1C(=O)NS(=O)(=O)c1cccc(N)n1 [Compound 67, N-[(6-amino-2-pyridyl)sulfonyl]-2-[ethyl(methyl)amino]-6-(3-fluoro-5-isobutoxy-phenyl)pyridine-3-carboxamide]
Emax: > 80% | pEC50: > 5.52

CC(C)COc1cc(F)cc(-c2ccc(C(=O)NS(=O)(=O)c3cccc(N)n3)c(OC(C(C)C)C(C)(C)C)n2)c1 (centres unmarked) [Compound 68, N-[(6-amino-2-pyridyl)sulfonyl]-6-(3-fluoro-5-isobutoxy-phenyl)-2-(1-isopropyl-2,2-dimethyl-propoxy)pyridine-3-carboxamide]
Emax: 30 to 80% | pEC50: > 5.52

CCC(CC)N(C)c1nc(-c2cc(F)cc(OCC(C)C)c2)ccc1C(=O)NS(=O)(=O)c1cccc(N)n1 [Compound 69, N-[(6-amino-2-pyridyl)sulfonyl]-2-[1-ethylpropyl(methyl)amino]-6-(3-fluoro-5-isobutoxy-phenyl)pyridine-3-carboxamide]
Emax: > 80% | pEC50: > 5.52

CC(C)Oc1ccc(-c2ccc(C(=O)NS(=O)(=O)c3cccc(N)n3)c(N(C)C(C)C)n2)cn1 [Compound 70, N-[(6-amino-2-pyridyl)sulfonyl]-6-(6-isopropoxy-3-pyridyl)-2-[isopropyl(methyl)amino]pyridine-3-carboxamide]
Emax: 30 to 80% | pEC50: 5.00 to 5.52

CCOCC(C)Oc1nc(-c2cc(F)cc(OCC(C)C)c2)ccc1C(=O)NS(=O)(=O)c1cccc(N)n1 (centres unmarked) [Compound 71, N-[(6-amino-2-pyridyl)sulfonyl]-2-(2-ethoxy-1-methyl-ethoxy)-6-(3-fluoro-5-isobutoxy-phenyl)pyridine-3-carboxamide]
Emax: 30 to 80% | pEC50: > 5.52

CC(C)COc1cc(F)cc(-c2ccc(C(=O)NS(=O)(=O)c3ccn[nH]3)c(NCC(C)(C)C)n2)c1 [Compound 72, 2-(2,2-dimethylpropylamino)-6-(3-fluoro-5-isobutoxy-phenyl)-N-(1H-pyrazol-5-ylsulfonyl)pyridine-3-carboxamide]
Emax: 30 to 80% | pEC50: 5.00 to 5.52

CC(C)COc1cc(F)cc(-c2ccc(C(=O)NS(=O)(=O)c3cccc(N)n3)c(OC(C)C(F)(F)F)n2)c1 (centres unmarked) [Compound 73, N-[(6-amino-2-pyridyl)sulfonyl]-6-(3-fluoro-5-isobutoxy-phenyl)-2-(2,2,2-trifluoro-1-methyl-ethoxy)pyridine-3-carboxamide]
Emax: 30 to 80% | pEC50: > 5.52

CCN(c1nc(-c2cc(F)cc(OCC(C)C)c2)ccc1C(=O)NS(=O)(=O)c1cccc(N)n1)C(C)C [Compound 74, N-[(6-amino-2-pyridyl)sulfonyl]-2-[ethyl(isopropyl)amino]-6-(3-fluoro-5-isobutoxy-phenyl)pyridine-3-carboxamide]
Emax: > 80% | pEC50: > 5.52

CC(C)COc1cc(F)cc(-c2ccc(C(=O)NS(=O)(=O)c3cccc(N)n3)c(N(C)[C@H](C)C(F)(F)F)n2)c1 [Compound 75, N-[(6-amino-2-pyridyl)sulfonyl]-6-(3-fluoro-5-isobutoxy-phenyl)-2-[methyl-[(1R)-2,2,2-trifluoro-1-methyl-ethyl]amino]pyridine-3-carboxamide]
Emax: > 80% | pEC50: > 5.52

CC(C)COc1cc(F)cc(-c2ccc(C(=O)NS(=O)(=O)c3cccc(N)n3)c(C(C)C(C)C)n2)c1 (centres unmarked) [Compound 76, N-[(6-amino-2-pyridyl)sulfonyl]-2-(1,2-dimethylpropyl)-6-(3-fluoro-5-isobutoxy-phenyl)pyridine-3-carboxamide]
Emax: 30 to 80% | pEC50: > 5.52

CCC(C)(C)CCOc1nc(-c2cc(F)cc(OCC(C)C)c2)ccc1C(=O)NS(=O)(=O)c1cccc(N)n1 [Compound 77, N-[(6-amino-2-pyridyl)sulfonyl]-2-(3,3-dimethylpentoxy)-6-(3-fluoro-5-isobutoxy-phenyl)pyridine-3-carboxamide]
Emax: 30 to 80% | pEC50: > 5.52

CC(C)COc1cc(F)cc(-c2ccc(C(=O)NS(=O)(=O)c3ccn[nH]3)c(N(C)C(C)C)n2)c1 [Compound 79, 6-(3-fluoro-5-isobutoxy-phenyl)-2-[isopropyl(methyl)amino]-N-(1H-pyrazol-5-ylsulfonyl)pyridine-3-carboxamide]
Emax: > 80% | pEC50: > 5.52

CC(C)COc1cc(F)cc(-c2ccc(C(=O)NS(=O)(=O)c3cccc(N)n3)c(NCCC(C)(C)O)n2)c1 [Compound 80, N-[(6-amino-2-pyridyl)sulfonyl]-6-(3-fluoro-5-isobutoxy-phenyl)-2-[(3-hydroxy-3-methyl-butyl)amino]pyridine-3-carboxamide]
Emax: 30 to 80% | pEC50: < 5.00

CC(C)COc1cc(F)cc(-c2ccc(C(=O)NS(=O)(=O)c3cccc(N)n3)c(OCCC(F)(F)F)n2)c1 [Compound 81, N-[(6-amino-2-pyridyl)sulfonyl]-6-(3-fluoro-5-isobutoxy-phenyl)-2-(3,3,3-trifluoropropoxy)pyridine-3-carboxamide]
Emax: 30 to 80% | pEC50: > 5.52

CC(C)COc1cc(F)cc(-c2ccc(C(=O)NS(=O)(=O)c3cccc(N)n3)c(OCCCC(F)(F)F)n2)c1 [Compound 82, N-[(6-amino-2-pyridyl)sulfonyl]-6-(3-fluoro-5-isobutoxy-phenyl)-2-(4,4,4-trifluorobutoxy)pyridine-3-carboxamide]
Emax: 30 to 80% | pEC50: > 5.52

CC(C)COc1cc(F)cc(-c2ccc(C(=O)NS(=O)(=O)c3cccc(N)n3)c(OC/C=C/C(F)(F)F)n2)c1 [Compound 83, N-[(6-amino-2-pyridyl)sulfonyl]-6-(3-fluoro-5-isobutoxy-phenyl)-2-[(E)-4,4,4-trifluorobut-2-enoxy]pyridine-3-carboxamide]
Emax: 30 to 80% | pEC50: > 5.52

CCCCCNc1nc(-c2cc(F)cc(OCC(C)C)c2)ccc1C(=O)NS(=O)(=O)c1cccc(N)n1 [Compound 84, N-[(6-amino-2-pyridyl)sulfonyl]-6-(3-fluoro-5-isobutoxy-phenyl)-2-(pentylamino)pyridine-3-carboxamide]
Emax: > 80% | pEC50: 5.00 to 5.52

CCOc1cccc2c1CN(CC(C)(C)C)C2(C)C(=O)NS(=O)(=O)c1cccc(=O)[nH]1 (centres unmarked) [Compound 85, 2-(2,2-dimethylpropyl)-4-ethoxy-1-methyl-N-[(6-oxo-1H-pyridin-2-yl)sulfonyl]isoindoline-1-carboxamide]
Emax: ≤ 30% | pEC50: < 5.00

CC(C)COc1cc(F)cc(-c2ccc(C(=O)NS(=O)(=O)c3ccccc3)c(N(C)CCCC(=O)O)n2)c1 [Compound 86, 4-[[3-(benzenesulfonylcarbamoyl)-6-(3-fluoro-5-isobutoxy-phenyl)-2-pyridyl]-methyl-amino]butanoic Acid]
Emax: ≤ 30% | pEC50: < 5.00
